Key:
[1] = tested on: Cat flea Ctenocephalides felis; test: Example B1: activity against fleas on dogs in a contaminated environment, oral tablets; assay type: in vivo
Excerpt: Comparison Between the Activity of Lufenuron Alone and the Combination of Nitenpyran and Lufenuron Against Dog Fleas in a Contaminated Environment Corresponding to Actual Conditions.
In the study, conditions existing in the household were simulated. To this end, 4 isolated and clinically clean rooms were used. They contained a sleeping area laid out with straw and a small run to the outside. The rooms were subjected to natural light conditions. […] Subsequently, each group of dogs underwent different treatment.
Control group 1 was given no active ingredient, but only a placebo and served as the reference group. Group 2 was given lufenuron in a monthly dosage in accordance with the instructions on the packet and once a week was given a placebo. Group 3 was given lufenuron in a monthly dosage in accordance with the instructions on the packet, and once a week was additionally given nitenpyram for a period of 6 weeks. Group 4 was given lufenuron in a monthly dosage in accordance with the instructions on the packet, and twice a week was additionally given nitenpyram for a period of 6 weeks.
In all four groups, the flea population was determined by counting them twice weekly before the first treatment and once weekly during treatment.
The activity of the test substances was determined under simulated household conditions in accordance with the following formula: [formula]

fleas = details: in vitro test, cited from earlier work
[2] = tested on: fleas present on the cats; details: cited from earlier work

| Compound | Activity (% relative to control) ([1]; days 0-28 after first treatment, monthly lufenuron only (Group 2)) | Activity (% relative to control) ([1]; days 29-56, monthly lufenuron only (Group 2)) | Activity (% relative to control) ([1]; days 57-84, monthly lufenuron only (Group 2)) | Activity (% relative to control) ([1]; days 85-112, monthly lufenuron only (Group 2)) | time until activity achieved a satisfactory level for practical usage ([1]; group 2, treated solely with lufenuron) | activity (fleas; after 24 hours) | time to first, substantial activity (fleas; after feeding contaminated blood to fleas) | activity against the fleas present on the cats ([2]; 6 hours after oral administration to cats) | activity against fleas ([2]; cats, oral, on the second day after renewed infestation) | time within which all the fleas except one died ([1]; after the first administration of nitenpyram) |
| --- | --- | --- | --- | --- | --- | --- | --- | --- | --- | --- |
| O=C(NC(=O)c1c(F)cccc1F)Nc1cc(Cl)c(OC(F)(F)C(F)C(F)(F)F)cc1Cl (racemic) [lufenuron, (R,S)-1-[2,5-dichloro-4-(1,1,2,2,3,3,3-hexafluoropropoxy)-phenyl]-3-(2,6-difluorobenzoyl)urea] | 25.4% | 78.6% | 72.1% | 94.3% | ca. 84 days |  |  |  |  |  |
| CCN(Cc1ccc(Cl)nc1)/C(=C/[N+](=O)[O-])NC [nitenpyram, (E)-N-(6-chloro-pyridin-3-ylmethyl)-N-ethyl-N′-methyl-2-nitrovinylidenediamine] |  |  |  |  |  | 100% | 30 min | 60% | 55% | 16 to 24 days |

— US20020058683A1, “Oral combination of lufenuron and nitenpyram against fleas” (priority 1998, published 2002)
